Results from patent US20230115176A1 (Ra Pharmaceuticals, Inc., priority 2019, published 2023).
Values after ≈ are worked out from the molar mass of the structure shown.

Key:
[1] = Kinetic solubility in PBS pH 7.4, HPLC-UV (Example 21, Table 27); format: physicochemical; settings: phosphate buffered saline, aqueous buffer, kinetic from dmso stock, 0.5 M PBS, shaken minimum 24 h at approximately 25° C., HPLC-UV 270 nm
In short: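 Supernatant measured by HPLC-UV (270 nm) against a DMSO calibration curve of 15.6–500.0 μM after filtration. Triplicate samples were made from 10 mM DMSO stock in 0.05 M phosphate buffer pH 7.4 (5% DMSO) and shaken at least 24 h at about 25 °C.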

[2] = Permeability assay, unidirectional transport, Papp (Example 30, Table 34); format: in vitro ADME, canine; settings: dog, pH 7.4; MDCK-WT cell monolayers, A-to-B, 3 μM test compound, 37° C., duplicate determinations
Experimental: Permeability assays were carried out to provide a preliminary indication of suitability for oral dosing and compound permeability across the blood brain barrier. Unidirectional and bidirectional compound transport across Madin Darby canine kidney (MDCK) cell monolayers was assessed. For unidirectional transport assessment, transport across MDCK wild type (MDCK-WT) cell monolayers was assessed. For bidirectional transport, transport across MDCK-MDR1 cell monolayers was assessed. MDCK-MDR1 cells express the MDR1 gene encoding the P-glycoprotein (P-gp) efflux protein.
MDCK-WT and MDCK-MDR1 cells were plated onto permeable polycarbonate supports in 12-well Costar transwell plates and allowed to grow and differentiate for 3 days. After 3 days in culture, the culture medium (DMEM supplemented with 10% FBS) was removed from both sides of the transwell inserts and cells were rinsed with warm HBSS. After the rinse step, the chambers were filled with warm transport buffer (HBSS containing 10 mM HEPES, 0.25% BSA, pH 7.4) and the plates were pre-incubated at 37° C. for 30 minutes prior to TEER (Trans Epithelial Electric Resistance) measurements.
The buffer in the donor chamber (apical side for A-to-B assay, basolateral side for B-to-A assay) was removed and replaced with the working solution (3 μM test compound and 10 μM for control compounds in transport buffer). The plates were then placed at 37° C. under light agitation. At designated time points (30, 60 and 90 min), an aliquot of transport buffer from the receiver chamber was removed and replenished with fresh transport buffer. Samples were quenched with ice-cold ACN containing internal standard and then centrifuged to pellet protein. Resulting supernatants were further diluted with 50/50 ACN/H2O (Atenolol diluted in just water) and submitted for LC-MS/MS analysis. Apparent permeability (Pap) values were calculated from duplicate determinations. Atenolol and propranolol were tested as low and […] permeability references.
Papp values indicate extent of compound permeation across monolayers.

Human C5 [3] = molecular target: T1, Human C5 (Homo sapiens, UniProt P01031); test: Red blood cell (RBC) hemolysis assay, luminescent (Example 13, Table 22); format: cell-based; settings: sheep EA cells, […] C5-depleted human serum, 0.5 nM human C5, 1 hour 37° C., luminescence
T1 construct: purchased Complement Technology
T1 sequence (P01031 19-1676): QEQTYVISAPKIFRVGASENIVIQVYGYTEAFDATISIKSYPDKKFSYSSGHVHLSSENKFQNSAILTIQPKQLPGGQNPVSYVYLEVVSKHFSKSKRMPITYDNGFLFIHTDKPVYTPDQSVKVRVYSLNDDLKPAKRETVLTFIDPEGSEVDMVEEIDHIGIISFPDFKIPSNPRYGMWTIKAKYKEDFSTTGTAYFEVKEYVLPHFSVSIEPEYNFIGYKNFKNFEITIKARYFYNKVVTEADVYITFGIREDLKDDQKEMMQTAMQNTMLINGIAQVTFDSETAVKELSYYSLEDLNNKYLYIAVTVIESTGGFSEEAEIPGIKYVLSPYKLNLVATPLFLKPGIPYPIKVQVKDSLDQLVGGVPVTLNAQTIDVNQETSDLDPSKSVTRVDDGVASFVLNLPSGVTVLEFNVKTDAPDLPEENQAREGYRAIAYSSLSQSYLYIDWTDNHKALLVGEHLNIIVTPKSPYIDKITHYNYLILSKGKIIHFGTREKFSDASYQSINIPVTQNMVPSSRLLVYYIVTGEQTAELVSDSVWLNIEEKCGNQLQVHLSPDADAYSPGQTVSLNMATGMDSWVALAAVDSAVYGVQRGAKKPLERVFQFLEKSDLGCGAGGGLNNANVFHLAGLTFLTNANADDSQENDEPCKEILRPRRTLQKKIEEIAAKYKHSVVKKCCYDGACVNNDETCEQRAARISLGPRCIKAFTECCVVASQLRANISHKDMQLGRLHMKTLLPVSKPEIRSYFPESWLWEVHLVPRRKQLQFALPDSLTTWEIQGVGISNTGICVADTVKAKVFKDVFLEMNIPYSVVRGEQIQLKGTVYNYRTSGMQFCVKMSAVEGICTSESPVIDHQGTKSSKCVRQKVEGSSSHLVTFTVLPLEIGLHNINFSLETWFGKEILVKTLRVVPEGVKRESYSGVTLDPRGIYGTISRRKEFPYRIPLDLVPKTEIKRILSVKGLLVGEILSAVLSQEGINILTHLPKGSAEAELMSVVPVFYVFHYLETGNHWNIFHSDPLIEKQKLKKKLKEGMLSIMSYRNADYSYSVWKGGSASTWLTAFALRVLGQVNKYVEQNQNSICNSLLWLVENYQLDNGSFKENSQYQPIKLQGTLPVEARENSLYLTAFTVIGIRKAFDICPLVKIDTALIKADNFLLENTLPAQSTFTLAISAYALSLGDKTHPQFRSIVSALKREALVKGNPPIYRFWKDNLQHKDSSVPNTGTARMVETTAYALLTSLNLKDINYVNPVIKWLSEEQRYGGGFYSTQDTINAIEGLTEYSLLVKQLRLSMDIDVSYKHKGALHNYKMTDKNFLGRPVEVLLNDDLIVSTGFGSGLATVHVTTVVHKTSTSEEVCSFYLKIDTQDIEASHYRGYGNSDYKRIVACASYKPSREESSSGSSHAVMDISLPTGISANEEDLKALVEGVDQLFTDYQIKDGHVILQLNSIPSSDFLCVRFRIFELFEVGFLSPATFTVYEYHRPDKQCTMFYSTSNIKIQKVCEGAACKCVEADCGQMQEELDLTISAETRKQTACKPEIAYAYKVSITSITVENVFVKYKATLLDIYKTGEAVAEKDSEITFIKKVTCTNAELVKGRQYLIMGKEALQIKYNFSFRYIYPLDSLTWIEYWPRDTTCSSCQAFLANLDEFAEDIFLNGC
Excerpt: Compound CU0136 is a racemic mixture of Compound CU0186 and CU0187. Numbers in parenthesis following compound numbers indicate alternate enantiomers (as distinguished by retention time during chromatographical separation).

[4] = molecular target: T2, human C5 complement protein (Homo sapiens, UniProt P01031); test: Surface plasmon resonance (SPR), immobilized human C5, 37° C. (Example 18, Table 24); format: binding; settings: lowest value obtained where a range of concentrations was analyzed
T2 sequence (P01031 19-1676): as above

Human C5 [5] = molecular target: T1, Human C5; test: Red blood cell (RBC) hemolysis assay, luminescent (Example 28, Table 32); format: cell-based; settings: sheep EA cells, 1.5% C5-depleted human serum, 0.5 nM human C5, 1 hour at 37° C., luminescence (Table 32)
Experimental: Sheep red blood cells coated with rabbit anti-sheep erythrocyte antiserum (EA cells; Complement Technology, Tyler, Tex.) were used to assay compound inhibitory activity of the classical complement activation pathway. Briefly, the EA cells were washed once and resuspended in the same volume of GVB++ buffer (Complement Technology, Tyler, Tex.). 25 μL of EA cells were then distributed into each well of 384-well tissue culture plates using Apricot iPipette Pro (Apricot Designs; Covina, Calif.). Compounds were tested in 10 points of final concentrations ranging from 16.67 μM to 1.65 μM in a 6-fold titration series. Compounds were dispensed into 384-well plates from 6.7 mM and 3.35 μM DMSO working stocks using an HP Digital Dispenser (HP; Corvallis, Oreg.). The reactions also contained 1.5% (v/v) C5-depleted human serum (Complement Technology). Hemolysis was induced by addition of human C5 (Complement Technology) at a concentration of 0.5 nM and plates were incubated for 1 hour at 37° C. in a cell culture incubator. The extent of hemolysis was measured by ability of released hemoglobin to catalyze luminol in the presence of hydrogen peroxide. Luminescence was then measured using a plate reader. Luminescence measurements were used to prepare a dose-response curve. From the curve, the half maximal inhibitory concentration (IC50) for each compound was determined, where the IC50 represents the concentration of each compound needed to reduce red blood cell hemolysis by half.

[6] = molecular target: T2, human C5 complement protein; test: Surface plasmon resonance (SPR), immobilized human C5, 37° C. (Example 27, Table 31); format: binding; settings: lowest value obtained where a range of concentrations was analyzed (Table 31)

| Structure (SMILES) | solubility kinetic [1] | Papp A→B at 3 μM [2] | Kd [4] | Kd [6] | IC50 (Human C5 [3]) | IC50 (Human C5 [5]) |
| --- | --- | --- | --- | --- | --- | --- |
| CCCCCOc1cc(N2CCCN(Cc3ccc(CC(=O)N4CCOC(CN(C)C)C4)cc3OC)C2=O)ccc1OC (racemic) [CU0136] | 479 µM (≈ 286 µg/mL) | 2.4 ×10⁻⁶ cm/s | – | – | 12.5 nM | – |
| COc1cc(CC(=O)N2CCOCC2)ccc1CN1CCCN(c2ccc(OC)c(OCCCC3CC3)c2)C1=O [CU0511] | 310 µM (≈ 171 µg/mL) | 16.6 ×10⁻⁶ cm/s | 0.47 nM | – | – | – |
| CCCCCOc1cc(N2CCCN(Cc3ccnc4c3c(Cl)cn4C3CCOCC3)C2=O)ccc1OC [CU0513] | < 10 µM | 9.6 ×10⁻⁶ cm/s | – | – | – | – |
| CCCCCOc1cc(N2CCCN(Cc3ccnc4c3c(Cl)cn4CC(=O)N3CC(O)C3)C2=O)ccc1OC [CU0518] | 47 µM (≈ 26.8 µg/mL) | 1.1 ×10⁻⁶ cm/s | 0.82 nM | – | – | – |
| CCCCCOc1cc(N2CCCN(Cc3ccnc4c3c(Cl)cn4CC(=O)N3CC[C@@H](N(C)C)C3)C2=O)ccc1OC [CU0520] | 366 µM (≈ 224 µg/mL) | 3.9 ×10⁻⁶ cm/s | – | – | – | – |
| CCCCCOc1cc(N2CCCN(Cc3ccnc4c3c(Cl)cn4CC(=O)N3CC[C@H](N(C)C)C3)C2=O)ccc1OC [CU0521] | 413 µM (≈ 252 µg/mL) | 3.9 ×10⁻⁶ cm/s | – | – | – | – |
| COc1ccc(N2CCCN(Cc3ccnc4c3c(Cl)cn4CC(=O)N3CCOC(CN(C)C)C3)C2=O)cc1OCCCC1CC1 (centres unmarked) [CU0523] | 486 µM (≈ 317 µg/mL) | 0.7 ×10⁻⁶ cm/s | – | – | – | – |
| CCCCCOc1cc(N2CCCN(Cc3ccnc4c3c(Cl)cn4CC(=O)N3CCOCC3)C2=O)ccc1OC [CU0526] | < 10 µM | 16.8 ×10⁻⁶ cm/s | 0.052 nM | – | – | – |
| CCCCCOc1cc(N2CCCN(Cc3ccnc4c3c(Cl)cn4CC(=O)N3CCO[C@H](CN(C)C)C3)C2=O)ccc1OC [CU0533] | 294 µM (≈ 189 µg/mL) | 1.7 ×10⁻⁶ cm/s | 0.056 nM | – | – | – |
| CCCCCOc1cc(N2CCCN(Cc3ccnc4c3c(Cl)cn4CC(=O)N3CC[C@@H](OC)C3)C2=O)ccc1OC [CU0534] | 85 µM (≈ 50.8 µg/mL) | 17.4 ×10⁻⁶ cm/s | 0.363 nM | – | – | – |
| COc1cc(CC(=O)N2CC[C@H](N(C)C)C2)ccc1CN1C(=O)N(c2ccc(OC)c(OCCCC3CC3)c2)CC[C@@H]1C [SC0101] | – | 4.7 ×10⁻⁶ cm/s | – | – | – | 0.9 nM |
| COc1cc(Cc2ccncn2)ccc1CN1C(=O)N(c2ccc(OC)c(OCCCC3CC3)c2)CC[C@@H]1C [SC0102] | – | 18.2 ×10⁻⁶ cm/s | – | – | – | 0.9 nM |
| CCCCCOc1cc(N2CC[C@H](C)N(Cc3cccc4c3c(C)cn4CC(=O)N3CCCOCC3)C2=O)ccc1OC [SC0103] | 24 µM (≈ 14.2 µg/mL) | – | – | 0.08 nM | – | 1 nM |
| CCCCCOc1cc(N2CC[C@H](C)N(Cc3ccnc4c3c(Cl)cn4CC(=O)N(C)C)C2=O)ccc1OC [SC0108] | 141 µM (≈ 78.4 µg/mL) | 21.7 ×10⁻⁶ cm/s | – | – | – | – |
| CCCCCOc1cc(N2CC[C@H](C)N(Cc3ccnc4c3c(Cl)cn4CC(=O)N3CC(C)(O)C3)C2=O)ccc1OC [SC0111] | – | 2.5 ×10⁻⁶ cm/s | – | – | – | 1.3 nM |
| COc1cc(CC(=O)N[C@H]2CCNC2)ccc1CN1C(=O)N(c2ccc(OC)c(OCCCC3CC3)c2)CC[C@@H]1C [SC0114] | 252 µM (≈ 142 µg/mL) | 0.1 ×10⁻⁶ cm/s | – | – | – | 1.3 nM |
| CCCCCOc1cc(N2CC[C@H](C)N(Cc3ccnc4c3c(Cl)cn4CC(=O)N3CC(N4CCOCC4)C3)C2=O)ccc1OC [SC0117] | – | 12.6 ×10⁻⁶ cm/s | – | – | – | 1.4 nM |
| COc1cc(CC(=O)N[C@H]2CN(C)C[C@H]2F)ccc1CN1C(=O)N(c2ccc(OC)c(OCCCC3CC3)c2)CC[C@@H]1C [SC0123] | – | 4.8 ×10⁻⁶ cm/s | – | – | – | 1.5 nM |
| COc1ccc(N2CC[C@H](C)N(Cc3cccc4c3c(Cl)cn4CC(=O)N(C)C)C2=O)cc1OCCCC1CCC1 [SC0125] | – | – | – | 0.09 nM | – | 1.6 nM |
| COc1cc(CC(=O)N2CCO[C@H](CN(C)C)C2)ccc1CN1C(=O)N(c2ccc(OC)c(OCCCC3CC3)c2)CC[C@@H]1C [SC0134] | 266 µM (≈ 166 µg/mL) | 2.2 ×10⁻⁶ cm/s | – | – | – | 1.8 nM |
| CCN1CC[C@@H](N(C)C(=O)Cc2ccc(CN3C(=O)N(c4ccc(OC)c(OCCCC5CC5)c4)CC[C@@H]3C)c(OC)c2)C1 [SC0144] | – | 3 ×10⁻⁶ cm/s | – | – | – | 2.1 nM |
| COc1cc(CC(=O)N2CCO[C@@H](CN(C)C)C2)ccc1CN1C(=O)N(c2ccc(OC)c(OCCCC3CC3)c2)CC[C@@H]1C [SC0146] | 486 µM (≈ 303 µg/mL) | 2.6 ×10⁻⁶ cm/s | – | – | – | 2.1 nM |
| CCCCCOc1cc(N2CC[C@H](C)N(Cc3ccnc4c3c(Cl)cn4CC(=O)N[C@H]3CCN(C)C3)C2=O)ccc1OC [SC0147] | – | 0.7 ×10⁻⁶ cm/s | – | – | – | 2.2 nM |
| CCN1CC[C@H](N(C)C(=O)Cc2ccc(CN3C(=O)N(c4ccc(OC)c(OCCCC5CC5)c4)CC[C@@H]3C)c(OC)c2)C1 [SC0149] | – | 3.5 ×10⁻⁶ cm/s | – | – | – | 2.2 nM |

Second part, led by results:

| solubility kinetic [1] | Papp A→B at 3 μM [2] | Kd [4] | Kd [6] | Structure (SMILES) | IC50 (Human C5 [3]) | IC50 (Human C5 [5]) |
| --- | --- | --- | --- | --- | --- | --- |
| – | 9.9 ×10⁻⁶ cm/s | – | – | CCCCCOc1cc(N2CC[C@H](C)N(Cc3ccnc4c3c(Cl)cn4CC(=O)N3CC(N(C)C)C3)C2=O)ccc1OC [SC0155] | – | 2.6 nM |
| 348 µM (≈ 228 µg/mL) | 1.3 ×10⁻⁶ cm/s | – | – | CCCCCOc1cc(N2CC[C@H](C)N(Cc3ccnc4c3c(Cl)cn4CC(=O)N3CCOC(CN(C)C)C3)C2=O)ccc1OC (some centres unmarked) [SC0156] | – | 2.6 nM |
| – | – | – | 0.4 nM | CCCCCOc1cc(N2CC(C)CN(Cc3ccc(CNC(=O)c4cnco4)cc3OC)C2=O)ccc1OC (centres unmarked) [SC0159] | – | 2.7 nM |
| 426 µM (≈ 245 µg/mL) | 14.3 ×10⁻⁶ cm/s | – | – | COc1ccc(N2CC[C@H](C)N(Cc3cccc4c3ccn4CC(=O)N3CCOCC3)C2=O)cc1OCCCC1CC1 [SC0164] | – | 2.9 nM |
| – | – | – | 0.79 nM | CCCCCOc1cc(N2CC[C@H](C)N(Cc3cccc4c3ccn4CC(=O)N(C)CC#N)C2=O)ccc1OC [SC0168] | – | 3.3 nM |
| – | 1.8 ×10⁻⁶ cm/s | – | – | CCCCCOc1cc(N2CC[C@H](C)N(Cc3cccc4c3c(Cl)cn4CC3=NCCN3C)C2=O)ccc1OC [SC0169] | – | 3.5 nM |
| – | – | – | 0.77 nM | CCCCCOc1cc(N2CC(C)CN(Cc3ccc(CNC(=O)c4cocn4)cc3OC)C2=O)ccc1OC (centres unmarked) [SC0170] | – | 3.7 nM |
| 356 µM (≈ 221 µg/mL) | 2 ×10⁻⁶ cm/s | – | – | CCCCCOc1cc(N2CC[C@H](C)N(Cc3cccc4c3ccn4CC(=O)N3CCO[C@@H](CN(C)C)C3)C2=O)ccc1OC [SC0171] | – | 3.7 nM |
| 309 µM (≈ 192 µg/mL) | 1.3 ×10⁻⁶ cm/s | – | – | CCCCCOc1cc(N2CC[C@H](C)N(Cc3cccc4c3ccn4CC(=O)N3CCO[C@H](CN(C)C)C3)C2=O)ccc1OC [SC0177] | – | 4.7 nM |
| – | – | – | 0.88 nM | COc1cc(CC(N)=O)ccc1CN1CC(C)CN(c2ccc(OC)c(OCCCC3CC3)c2)C1=O (centres unmarked) [SC0179] | – | 4.9 nM |
| – | – | – | 1.85 nM | CCCCCOc1cc(N2CC(C)CN(Cc3ccc(CC(=O)N4CCCOCC4)cc3OC)C2=O)ccc1OC (centres unmarked) [SC0186] | – | 5.8 nM |
| – | – | – | 2.8 nM | CCCCCOc1cc(N2CC(CO)CN(Cc3ccc(CC(=O)N4CCCOCC4)cc3OC)C2=O)ccc1OC (centres unmarked) [SC0190] | – | 7.1 nM |
